Test results reported in ChEMBL document CHEMBL3301464, “MMV Malaria Box anti-babesial screening”.

Legend:
[1] = (§1) MMV: Anti-babesial activity assay. Parasite pRBCs at 1% parasitemia were cultivated in 100 ul with 96-well plates at 2.5% and 5% hematocrits. The parasites were cultivated in triplicate for 4 days without replacement of the medium for each concentration of the compound.; format: functional, Babesia bovis
[2] = as §1; format: functional, Babesia bigemina
[3] = as §1; format: functional, Babesia equi
[4] = as §1; format: functional, Babesia caballi

Row | SMILES | IC50 [1] | IC50 [2] | IC50 [3] | IC50 [4]
1 | OCCNc1nc(Nc2ccc(Cl)c(Cl)c2)nc2ccccc12 | 0.52 µM | 3.34 µM | 1.39 µM | 0.1 µM
2 | Oc1c(CN2CCN(c3ccccc3F)CC2)cc(Br)c2cccnc12 | 3.32 µM | 4.6 µM | 12.8 µM | 14.7 µM
3 | O=C(NCCCN1CCC(N2CCCCC2)CC1)C1=Cc2cc(Br)ccc2OC1 | 1 µM | 0.08 µM | 5.09 µM | 4.13 µM
4 | Cc1cc(NC(=O)C2c3ccccc3C(=O)N(CC(C)C)C2c2cccs2)no1 (stereo not given) | 12.6 µM | 2.57 µM | 3 µM | 13 µM
5 | Cc1ccc(CN2CCC(C(=O)Nc3ccc(-c4cc5ccccc5[nH]4)cc3)CC2)o1 | 5.5 µM | 3.61 µM | 0.33 µM | 4.37 µM
6 | CCOc1cc2c(cc1OCC)C(c1cc(Cl)ccc1O)NCC2 (stereo not given) | 1.06 µM | 10 µM | 1.4 µM | 0.33 µM
7 | COc1ccc(C(=O)Nc2ccc(Cl)cc2C(=O)Nc2ccncc2)cc1 | 3.53 µM | 0.65 µM | 10 µM | 6.4 µM
8 | Cc1cc(=O)oc2c1ccc1oc(C(=O)c3ccccc3)c(C)c12 | 10.1 µM | 11.9 µM | 12.1 µM | 5.69 µM
9 | COc1cc(SC)ccc1C(=O)N1CCCC(C)C1 (stereo not given) | 19.4 µM | > 25 µM | 5.79 µM | 12.3 µM
10 | COCCNC(=O)c1ccc(OC2CCN(Cc3ccc(F)c(F)c3)CC2)c(Cl)c1 | 0.27 µM | 0.98 µM | 17.2 µM | 1 µM
11 | Cc1ccc(C)c(-c2csc(Nc3ccc(C)c(C)c3)n2)c1 | 0.06 µM | 8.05 µM | 0.14 µM | 0.71 µM
12 | Cc1nc2ccccc2c(O)c1CC=C(Cl)Cl | 4.27 µM | 10.7 µM | 15.2 µM | 3.02 µM
13 | CCOc1cccc2sc(N(Cc3cccnc3)C(=O)C3CCCCC3)nc12 | 25 µM | 21.6 µM | 4.77 µM | 0.076 µM
14 | COc1cccc(C(=O)NC(c2ccc(C)cc2)c2cc(Cl)c3cccnc3c2O)c1 (stereo not given) | 4.68 µM | 1.4 µM | 3.73 µM | 16.1 µM
15 | Cc1ccccc1OCCSc1nc2ccc(NC(=O)c3cccs3)cc2s1 | 7.81 µM | 5.09 µM | 22.3 µM | 5.51 µM
16 | O=C(Nc1ccc(N2CCCCC2)c(Cl)c1)c1ccc(Br)o1 | 11.9 µM | 17.7 µM | 18.7 µM | 13.9 µM
17 | O=C(Nc1ccc(C23CC4CC(CC(c5ccccc5)(C4)C2)C3)cc1)c1cccs1 | 8.1 µM | 10.4 µM | 15.2 µM | 16.8 µM
18 | Nc1ccc(-c2nc3cc(Oc4ccc(Oc5ccc6[nH]c(-c7ccc(N)cc7)nc6c5)cc4)ccc3[nH]2)cc1 | 10 µM | 18.9 µM | 3.86 µM | 4.52 µM
19 | Cc1cc(N2CCN(C3CCCC3)CC2)n2c(nc3ccccc32)c1C#N | 0.75 µM | 0.1 µM | 0.065 µM | 0.38 µM
20 | CCCCOc1ccc(C(=O)Nc2cc(C)on2)cc1 | 21.2 µM | 25 µM | 6.99 µM | 0.083 µM
21 | O=C(CCc1ccccc1)c1ccccc1OCC(O)CN1CCCCC1 (stereo not given) | 4.52 µM | 5.69 µM | 10.7 µM | 7.26 µM
22 | CCOc1c(Br)cc(C2C(C(=O)OC)=CN(C)C=C2C(=O)OC)cc1OC | 0.072 µM | 0.25 µM | 9.18 µM | 11.9 µM
23 | CCCCCCc1cc2cc(-c3csc(C=Cc4ccccc4)n3)c(=O)oc2cc1O | 5.92 µM | 25 µM | 6.86 µM | 10 µM

Row | SMILES | IC50 [1] | IC50 [2] | IC50 [3] | IC50 [4]
24 | CCOC(=O)C1CCN(C(=O)CN2C(=O)c3ccccc3C2c2c[nH]c3ccccc23)CC1 (stereo not given) | > 25 µM | 25 µM | 4.19 µM | 5.35 µM
25 | COc1ccc(-c2cn3c(C(=O)Nc4ccccc4Cl)c(-c4ccccc4)c4c3n2CCCC4)cc1 | 0.77 µM | 21.6 µM | 1 µM | 12.5 µM
26 | CCCCCCc1cc(O)c2c3c(c(=O)oc2c1)CCC(C)C3 (stereo not given) | 5.1 µM | 10 µM | 3.26 µM | 15.9 µM
27 | COc1cccc(C=Cc2nc(=O)c3ccccc3o2)c1OC | > 25 µM | 20 µM | 16.5 µM | 22.3 µM
28 | CC(C)(C)c1ccc(C(=O)Nc2nc3ccccc3s2)cc1 | 7 µM | 12.9 µM | 10 µM | 1 µM
29 | C=CCc1c(C)nc2ccccc2c1O | 6.09 µM | 3.57 µM | 3.61 µM | 11.4 µM
30 | COc1ccc(CCn2c(=N)c(C(=O)NCc3cccnc3)cc3c(=O)n4cccc(C)c4nc32)cc1 | 0.13 µM | 0.052 µM | 0.41 µM | 4.27 µM
31 | COc1ccc(C(=O)Nc2nonc2-c2ccc(OC)c(OC)c2)cc1Cl | > 25 µM | 19.3 µM | 20.4 µM | 15.9 µM
32 | CCN(CC)S(=O)(=O)c1ccc(-c2csc(Nc3ccc(C)c(C)c3)n2)cc1 | 11.9 µM | 10 µM | 14.2 µM | 0.08 µM
33 | CCOc1ccc2nc(C)cc(Nc3ccc(Br)cc3)c2c1 | 1.07 µM | 0.6 µM | 7.13 µM | 15.2 µM
34 | c1ccc(CNc2nc(Nc3ccccc3)nc3ccccc23)cc1 | 4.06 µM | 10 µM | 2.12 µM | 3.73 µM
35 | O=C1c2ccccc2-c2nnc(-c3ccc(Br)cc3)cc21 | 0.86 µM | 0.77 µM | 10.1 µM | 18.1 µM
36 | Cc1cc(C)cc(Nc2cc(C)nc3nc(C(F)(F)F)nn23)c1 | 20.6 µM | 13.6 µM | 21.9 µM | 12.4 µM
37 | CC(C)(C)CC(C)(C)NCC(O)COc1ccc(Cl)cc1Cl (stereo not given) | 0.083 µM | 0.32 µM | 0.53 µM | 0.071 µM
38 | Cc1cc(N(C)C)nc(Nc2ccc(NC(=O)Nc3ccccc3)cc2)n1 | 0.078 µM | 0.06 µM | 12.1 µM | 14.6 µM
39 | COc1ccccc1CNC(=O)CCn1c(=O)[nH]c2ccsc2c1=O | 8.93 µM | 0.68 µM | 15.2 µM | 2.05 µM
40 | Cc1ccc(F)cc1NC(=O)c1cc(Cl)ccc1Nc1ccccc1 | 18.6 µM | 10.2 µM | > 25 µM | 2.56 µM
41 | COc1ccc(-c2cc(=O)oc3c4c(ccc23)OCN(Cc2ccc(F)cc2)C4)cc1 | 2.95 µM | 0.29 µM | 14.8 µM | 0.071 µM
42 | CN1CCN(c2c3c(c(C#N)c4nc5ccccc5n24)CCC3)CC1 | 13.3 µM | 19.2 µM | 8.25 µM | > 25 µM
43 | COc1cccc(O)c1CN1CCC2(CCCN(Cc3ccc(F)cc3)C2)C1 (stereo not given) | 2.45 µM | 10 µM | 4.6 µM | 3.09 µM
44 | Oc1ccccc1CNCC12CC3CC(CC(C3)C1)C2 | 14.7 µM | 15.9 µM | 13.1 µM | 10 µM
45 | OC(CNC1CCCCC1)Cn1c2ccccc2c2ccccc21 (stereo not given) | 17.3 µM | 17.3 µM | 17.3 µM | 13.8 µM
